Laboratory results reported in ChEMBL document CHEMBL3856253, “6'-O-Caffeoyldihydrosyringin isolated from Aster glehni suppresses lipopolysaccharide-induced iNOS, COX-2, TNF-α, IL-1β and IL-6 expression via NF-κB and AP-1 inactivation in RAW 264.7 macrophages” (Bioorg Med Chem Lett, 2016).
Each block holds one compound with its values, some of them ahead of it. Calls of active or inactive are those of the source. The rule behind the calls is not given here.

Columns and labels:
[1] = biological target: Proto-oncogene c-Fos (Mus musculus) (UniProt P01101); experiment: Inhibition of LPS-induced AP-1 c-Fos component phosphorylation in nucleus of mouse RAW264.7 cells at 50 uM incubated for 1 hr followed by stimulation with LPS for 15 to 45 mins by Western blot analysis
Chain of Proto-oncogene c-Fos (Mus musculus) (P01101 whole entry, looked up): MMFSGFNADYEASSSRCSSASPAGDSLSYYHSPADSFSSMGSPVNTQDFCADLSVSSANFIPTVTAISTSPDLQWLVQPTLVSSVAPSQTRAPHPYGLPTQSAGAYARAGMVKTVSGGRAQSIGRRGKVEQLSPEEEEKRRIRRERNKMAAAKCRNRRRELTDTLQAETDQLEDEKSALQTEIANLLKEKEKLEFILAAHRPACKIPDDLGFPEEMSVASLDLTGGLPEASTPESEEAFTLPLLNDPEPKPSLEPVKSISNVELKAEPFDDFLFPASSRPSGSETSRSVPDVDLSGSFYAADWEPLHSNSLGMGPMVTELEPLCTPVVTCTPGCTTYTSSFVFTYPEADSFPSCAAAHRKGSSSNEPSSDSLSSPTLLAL

[2] = tested on: RAW264.7; experiment: Inhibition of NF-kappaB/AP-1 in mouse RAW264.7 cells assessed as reduction in LPS-induced IL-6 production incubated for 1 hr followed by stimulation with LPS for 24 hrs by enzyme immuno assay; assay type: cell-based
[3] = biological target: Transcription factor Jun (Homo sapiens) (UniProt P05412); experiment: Inhibition of LPS-induced AP-1 (unknown origin) activity expressed in mouse RAW264.7 cells incubated for 1 hr followed by stimulation with LPS for 18 hrs by luciferase reporter gene assay; assay type: cell-based
Chain of Transcription factor Jun (Homo sapiens) (P05412 whole entry): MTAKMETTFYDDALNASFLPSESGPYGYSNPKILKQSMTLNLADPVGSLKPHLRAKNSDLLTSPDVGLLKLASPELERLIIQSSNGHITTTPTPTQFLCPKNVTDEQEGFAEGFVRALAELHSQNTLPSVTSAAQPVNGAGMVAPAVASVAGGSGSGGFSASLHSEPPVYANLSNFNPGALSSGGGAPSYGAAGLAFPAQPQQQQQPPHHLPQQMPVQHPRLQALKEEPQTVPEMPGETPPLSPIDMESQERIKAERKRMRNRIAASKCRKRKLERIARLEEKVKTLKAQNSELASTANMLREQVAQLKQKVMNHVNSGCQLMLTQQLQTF

[4] = (§1) Inhibition of NF-kappaB/AP-1 in mouse RAW264.7 cells assessed as reduction in LPS-induced PGE2 production incubated for 1 hr followed by stimulation with LPS for 24 hrs by enzyme immuno assay; assay type: cell-based
[5] = tested on: RAW264.7; experiment: as §1; assay type: cell-based
[6] = tested on: RAW264.7; experiment: Inhibition of NF-kappaB/AP-1 in mouse RAW264.7 cells assessed as reduction in LPS-induced IL-1beta production incubated for 1 hr followed by stimulation with LPS for 24 hrs by enzyme immuno assay; assay type: cell-based
[7] = tested on: RAW264.7; experiment: Inhibition of NF-kappaB/AP-1 in mouse RAW264.7 cells assessed as reduction in LPS-induced COX-2 mRNA level incubated for 4 hrs by SYBR green dye based qRT-PCR analysis; assay type: cell-based
[8] = tested on: RAW264.7; experiment: Inhibition of NF-kappaB/AP-1 in mouse RAW264.7 cells assessed as reduction in LPS-induced iNOS mRNA level incubated for 4 hrs by SYBR green dye based qRT-PCR analysis; assay type: cell-based
[9] = tested on: RAW264.7; experiment: Inhibition of NF-kappaB/AP-1 in mouse RAW264.7 cells assessed as reduction in LPS-induced IL-1beta mRNA level incubated for 4 hrs by SYBR green dye based qRT-PCR analysis; assay type: cell-based
[10] = tested on: RAW264.7; experiment: Inhibition of NF-kappaB/AP-1 in mouse RAW264.7 cells assessed as reduction in LPS-induced TNF-alpha production incubated for 1 hr followed by stimulation with LPS for 24 hrs by enzyme immuno assay; assay type: cell-based
[11] = species on record: Mus musculus; experiment: Cytotoxicity against LPS-induced mouse RAW264.7 cells assessed as decrease in cell viability up to 50 uM after 24 hrs by MTT assay; assay type: toxicity, cell-based; conditions: raw264.7, 24 h
[12] = tested on: RAW264.7; experiment: Inhibition of LPS-induced NF-kappaB (unknown origin) activity expressed in mouse RAW264.7 cells incubated for 1 hr followed by stimulation with LPS for 18 hrs by luciferase reporter gene assay; assay type: cell-based
[13] = biological target: Transcription factor p65 (Mus musculus) (UniProt Q04207); experiment: Inhibition of LPS-induced NF-kappaB p65 subunit nuclear translocation in mouse RAW264.7 cells at 50 uM incubated for 1 hr followed by stimulation with LPS for 15 to 45 mins; assay type: cell-based
Chain of Transcription factor p65 (Mus musculus) (Q04207 whole entry): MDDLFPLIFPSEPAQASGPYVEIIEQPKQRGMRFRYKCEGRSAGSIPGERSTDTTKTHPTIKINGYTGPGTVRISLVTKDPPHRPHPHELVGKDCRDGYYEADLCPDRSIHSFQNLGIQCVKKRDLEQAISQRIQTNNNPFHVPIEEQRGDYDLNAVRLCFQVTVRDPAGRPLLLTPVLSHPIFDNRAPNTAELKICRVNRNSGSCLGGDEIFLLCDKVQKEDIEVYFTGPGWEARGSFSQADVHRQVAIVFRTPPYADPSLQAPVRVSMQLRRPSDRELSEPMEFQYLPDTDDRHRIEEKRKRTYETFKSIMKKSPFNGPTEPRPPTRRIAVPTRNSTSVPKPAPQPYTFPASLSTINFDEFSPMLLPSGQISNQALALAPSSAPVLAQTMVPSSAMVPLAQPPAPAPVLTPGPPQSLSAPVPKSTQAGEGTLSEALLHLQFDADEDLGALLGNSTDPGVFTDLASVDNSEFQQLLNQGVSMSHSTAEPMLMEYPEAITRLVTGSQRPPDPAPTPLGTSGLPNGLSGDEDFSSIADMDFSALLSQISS

[14] = Cytotoxicity against LPS-induced mouse RAW264.7 cells assessed as decrease in cell viability after 24 hrs by MTT assay; assay type: toxicity; conditions: LPS-induced RAW264.7 cells
[15] = biological target: RAC-alpha serine/threonine-protein kinase (Mus musculus) (UniProt P31750); experiment: Inhibition of LPS-induced AKT phosphorylation in mouse RAW264.7 cells at 50 uM incubated for 1 hr followed by stimulation with LPS by Western blot analysis; assay type: cell-based
Chain of RAC-alpha serine/threonine-protein kinase (Mus musculus) (P31750 whole entry): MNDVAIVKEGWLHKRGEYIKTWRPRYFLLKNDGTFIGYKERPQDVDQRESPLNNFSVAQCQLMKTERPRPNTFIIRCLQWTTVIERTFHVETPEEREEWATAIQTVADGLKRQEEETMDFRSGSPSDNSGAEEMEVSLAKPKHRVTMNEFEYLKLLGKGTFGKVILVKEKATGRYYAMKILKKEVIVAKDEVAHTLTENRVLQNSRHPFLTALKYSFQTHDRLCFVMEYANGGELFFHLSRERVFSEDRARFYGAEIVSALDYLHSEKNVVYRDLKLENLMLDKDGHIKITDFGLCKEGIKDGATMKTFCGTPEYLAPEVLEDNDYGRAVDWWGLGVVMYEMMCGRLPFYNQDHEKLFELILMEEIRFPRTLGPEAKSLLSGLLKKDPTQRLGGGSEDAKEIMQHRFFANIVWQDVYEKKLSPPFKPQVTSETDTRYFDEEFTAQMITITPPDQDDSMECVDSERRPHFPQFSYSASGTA

[16] = tested on: RAW264.7; experiment: Inhibition of NF-kappaB/AP-1 in mouse RAW264.7 cells assessed as reduction in LPS-induced COX-2 protein expression incubated for 1 hr followed by stimulation with LPS for 24 hrs by Western blot analysis; assay type: cell-based
[17] = biological target: Transcription factor p65 (Mus musculus) (UniProt Q04207); experiment: Inhibition of LPS-induced NF-kappaB p65 subunit phosphorylation in mouse RAW264.7 cells at 50 uM incubated for 1 hr followed by stimulation with LPS for 15 to 45 mins; assay type: cell-based
[18] = tested on: RAW264.7; experiment: Inhibition of NF-kappaB/AP-1 in mouse RAW264.7 cells assessed as reduction in LPS-induced iNOS protein expression incubated for 1 hr followed by stimulation with LPS for 24 hrs by Western blot analysis; assay type: cell-based
[19] = (§2) Inhibition of NF-kappaB/AP-1 in mouse RAW264.7 cells assessed as reduction in LPS-induced nitric oxide production incubated for 1 hr followed by stimulation with LPS for 24 hrs by Griess assay; assay type: cell-based
[20] = tested on: RAW264.7; experiment: as §2; assay type: cell-based
[21] = tested on: RAW264.7; experiment: Inhibition of NF-kappaB/AP-1 in mouse RAW264.7 cells assessed as reduction in LPS-induced IL-6 mRNA level incubated for 4 hrs by SYBR green dye based qRT-PCR analysis; assay type: cell-based
[22] = tested on: RAW264.7; experiment: Inhibition of NF-kappaB/AP-1 in mouse RAW264.7 cells assessed as reduction in LPS-induced TNF-alpha mRNA level incubated for 4 hrs by SYBR green dye based qRT-PCR analysis; assay type: cell-based

inhibition [1]: Active
inhibition [3]: Dose-dependent effect
IC50 [4]: 48.3 µM
inhibition [13]: Active
inhibition [15]: Active
inhibition [17]: Active
IC50 [19]: 43.6 µM
SMILES: COc1cc(CCCO)cc(OC)c1O[C@@H]1O[C@H](COC(=O)/C=C/c2ccc(O)c(O)c2)[C@@H](O)[C@H](O)[C@H]1O
inhibition [2]: Active
inhibition [5]: Dose-dependent effect
inhibition [6]: Active
inhibition [7]: Dose-dependent effect
inhibition [8]: Dose-dependent effect
inhibition [9]: Active
inhibition [10]: Active
Activity [11]: Non-Toxic
inhibition [12]: Dose-dependent effect
IC80 at 24 h [14]: 67.6 µM
inhibition [16]: Dose-dependent effect
inhibition [18]: Dose-dependent effect
inhibition [20]: Dose-dependent effect
inhibition [21]: Active
inhibition [22]: Active

IC50 [4]: > 50 µM
IC50 [19]: > 50 µM
SMILES: CC(=O)/C=C/C1=C(C)[C@@H](O)[C@@H](O[C@@H]2O[C@H](COC(=O)/C=C/c3ccc(O)c(O)c3)[C@@H](O)[C@H](O)[C@H]2O)CC1(C)C
IC80 at 24 h [14]: > 100 µM

IC50 [4]: > 50 µM
IC50 [19]: > 50 µM
SMILES: C[C@H](/C=C/[C@@]1(O)[C@H](C)CC(=O)CC1(C)C)O[C@@H]1O[C@H](COC(=O)/C=C/c2ccc(O)c(O)c2)[C@@H](O)[C@H](O)[C@H]1O
IC80 at 24 h [14]: > 100 µM

IC50 [4]: > 50 µM
IC50 [19]: > 50 µM
SMILES: CC1=CC(=O)CC(C)(C)[C@@]1(O)/C=C/[C@@H](C)O[C@@H]1O[C@H](COC(=O)/C=C/c2ccc(O)c(O)c2)[C@@H](O)[C@H](O)[C@H]1O
IC80 at 24 h [14]: 67.8 µM

IC50 [4]: > 50 µM
IC50 [19]: 31.5 µM
SMILES: C/C(=C\CO)CO[C@@H]1O[C@H](COC(=O)/C=C/c2ccc(O)c(O)c2)[C@@H](O)[C@H](O)[C@H]1O
IC80 at 24 h [14]: > 100 µM
